± gives the expanded uncertainty stated by the source.
Conditions: Liquid, Brillouin light scattering method

CCCCCCCC(=O)OC [methyl octanoate]
Conditions	speed of sound [m/s]
298.22 K, 7000 kPa	1316.3 ± 14
298.3 K, 10010 kPa	1327.9 ± 15
298.44 K, 1010 kPa	1292.1 ± 14
298.44 K, 5000 kPa	1307.1 ± 14
298.6 K, 3000 kPa	1298.2 ± 14
298.84 K, 90 kPa	1274.5 ± 14
308.25 K, 3010 kPa	1258.8 ± 15
308.37 K, 10010 kPa	1291.2 ± 14
308.42 K, 100 kPa	1236.4 ± 15
308.49 K, 7010 kPa	1280.4 ± 14
308.52 K, 1010 kPa	1248.8 ± 15
308.58 K, 5010 kPa	1270.1 ± 14
318.18 K, 5010 kPa	1221.3 ± 15
318.56 K, 7020 kPa	1229.5 ± 15
318.76 K, 10010 kPa	1242.4 ± 15
318.91 K, 3010 kPa	1208 ± 14
319.59 K, 110 kPa	1192.3 ± 14
319.89 K, 1010 kPa	1194.5 ± 14
327.96 K, 5010 kPa	1186 ± 14
328.11 K, 3020 kPa	1171.3 ± 14
328.36 K, 100 kPa	1158 ± 14
328.69 K, 7010 kPa	1191.4 ± 14
328.82 K, 10010 kPa	1209.9 ± 14
328.88 K, 1010 kPa	1155.4 ± 14
337.63 K, 100 kPa	1121.6 ± 15
337.88 K, 7010 kPa	1157.9 ± 14
338.43 K, 1010 kPa	1125.5 ± 15
338.46 K, 10010 kPa	1174.8 ± 14
338.47 K, 5000 kPa	1147.2 ± 14
338.96 K, 3000 kPa	1134.3 ± 14
347.39 K, 3000 kPa	1104.6 ± 14
347.87 K, 10010 kPa	1148.4 ± 14
348.45 K, 110 kPa	1078.6 ± 14
348.54 K, 5020 kPa	1109.1 ± 14
348.77 K, 7000 kPa	1120.5 ± 15
348.8 K, 1000 kPa	1085.5 ± 14
357.69 K, 3010 kPa	1071.8 ± 14
357.74 K, 5000 kPa	1079.2 ± 14
357.91 K, 10000 kPa	1112.7 ± 14
358.16 K, 100 kPa	1044.6 ± 14
358.25 K, 7000 kPa	1095.1 ± 14
358.56 K, 1010 kPa	1049.3 ± 14
367.26 K, 5000 kPa	1049.2 ± 14
367.28 K, 3000 kPa	1038.1 ± 14
367.29 K, 110 kPa	1015.5 ± 14
367.47 K, 10010 kPa	1078.4 ± 14
367.73 K, 7010 kPa	1060.7 ± 14
368.05 K, 1000 kPa	1017.5 ± 14
377.8 K, 1000 kPa	989.1 ± 14
378.03 K, 7000 kPa	1027.3 ± 13
378.16 K, 4990 kPa	1013.1 ± 14
378.27 K, 100 kPa	975.6 ± 14
378.29 K, 10000 kPa	1047.1 ± 14
378.6 K, 3000 kPa	1000.4 ± 14
387.15 K, 110 kPa	947.3 ± 13
387.64 K, 3000 kPa	964.7 ± 14
387.88 K, 10010 kPa	1017.7 ± 14
388.01 K, 7000 kPa	991.8 ± 14
388.02 K, 1000 kPa	952.1 ± 13
388.04 K, 5000 kPa	978.4 ± 14
397.22 K, 1010 kPa	922.4 ± 14
397.37 K, 3010 kPa	934 ± 14
397.49 K, 10010 kPa	988 ± 14
397.57 K, 7010 kPa	963.7 ± 14
397.59 K, 5010 kPa	949.2 ± 13
397.71 K, 100 kPa	910.7 ± 14
407.84 K, 5010 kPa	916.3 ± 14
408.01 K, 10010 kPa	954.1 ± 13
408.03 K, 3000 kPa	896.1 ± 13
408.14 K, 100 kPa	873.1 ± 13
408.48 K, 7010 kPa	933.8 ± 14
409.43 K, 1000 kPa	879.8 ± 13
417.31 K, 1010 kPa	850.6 ± 14
417.49 K, 110 kPa	841.4 ± 14
417.49 K, 5000 kPa	885.5 ± 13
417.57 K, 7000 kPa	904.2 ± 14
417.65 K, 10000 kPa	925.4 ± 14
417.75 K, 3000 kPa	867.9 ± 13
427.78 K, 110 kPa	811.6 ± 13
427.88 K, 7010 kPa	873.7 ± 13
427.9 K, 1010 kPa	822.3 ± 13
427.93 K, 3010 kPa	837.5 ± 13
427.94 K, 10010 kPa	899.7 ± 14
427.95 K, 5010 kPa	855.8 ± 14
438.55 K, 100 kPa	775.1 ± 13
438.61 K, 1000 kPa	780.2 ± 13
438.61 K, 10010 kPa	866.1 ± 13
438.81 K, 7000 kPa	838.7 ± 13
438.87 K, 5000 kPa	823.4 ± 13
438.94 K, 3010 kPa	803.1 ± 14
447.87 K, 1010 kPa	754.6 ± 13
447.88 K, 5000 kPa	793.5 ± 14
447.92 K, 7000 kPa	813.8 ± 13
447.96 K, 3010 kPa	776.7 ± 13
447.96 K, 10000 kPa	841 ± 14
448.01 K, 110 kPa	744.4 ± 13
457.92 K, 1000 kPa	724.7 ± 13
458.07 K, 5010 kPa	760.9 ± 13
458.12 K, 7010 kPa	782.2 ± 13
458.17 K, 3000 kPa	744.1 ± 13
458.18 K, 10010 kPa	810.7 ± 13
467.43 K, 10010 kPa	784.5 ± 13
467.58 K, 7010 kPa	759.7 ± 13
467.9 K, 5000 kPa	738.9 ± 13
468.47 K, 1010 kPa	694.8 ± 13
468.68 K, 3000 kPa	713.7 ± 13
476.82 K, 5010 kPa	710.8 ± 13
477 K, 10010 kPa	759.6 ± 13
477.06 K, 1000 kPa	665 ± 13
477.26 K, 7010 kPa	729 ± 13
477.88 K, 3010 kPa	685.8 ± 13
486.8 K, 1000 kPa	631 ± 13
486.87 K, 3000 kPa	654.3 ± 13
486.92 K, 5010 kPa	682 ± 13
486.96 K, 7010 kPa	700 ± 13
487 K, 10010 kPa	738.2 ± 13
498.13 K, 3010 kPa	625.4 ± 13
498.28 K, 7000 kPa	667.5 ± 13
498.28 K, 10000 kPa	705 ± 13
498.41 K, 5000 kPa	644.1 ± 13
498.83 K, 1000 kPa	596.6 ± 13
507.85 K, 1010 kPa	568.9 ± 12
507.87 K, 7000 kPa	646.1 ± 13
507.89 K, 3010 kPa	596.3 ± 13
507.91 K, 5010 kPa	620.4 ± 13
507.91 K, 10000 kPa	680.6 ± 13
517.71 K, 3000 kPa	567.5 ± 13
517.73 K, 1000 kPa	534.7 ± 13
517.79 K, 7000 kPa	619 ± 13
517.81 K, 5000 kPa	594.2 ± 13
518.17 K, 10000 kPa	658.9 ± 13
527.51 K, 7010 kPa	600 ± 13
527.6 K, 1010 kPa	500 ± 12
527.66 K, 3010 kPa	537.5 ± 13
528.05 K, 10000 kPa	631.9 ± 13
528.28 K, 5010 kPa	569.1 ± 12
537.38 K, 1000 kPa	472.9 ± 13
537.57 K, 7000 kPa	569.9 ± 12
537.63 K, 3010 kPa	511.3 ± 13
537.67 K, 5000 kPa	543.3 ± 12
537.72 K, 9990 kPa	609.6 ± 13
547.06 K, 1000 kPa	438.8 ± 13
547.13 K, 5010 kPa	516 ± 13
547.47 K, 10010 kPa	583.9 ± 13
547.67 K, 7000 kPa	544 ± 12
547.87 K, 3000 kPa	480.9 ± 12
557.84 K, 1000 kPa	403.8 ± 12
557.94 K, 5010 kPa	489.3 ± 13
558.16 K, 7000 kPa	515.9 ± 13
558.18 K, 10010 kPa	561.2 ± 13
558.2 K, 3000 kPa	448 ± 12
567.35 K, 1010 kPa	371.2 ± 13
567.7 K, 5000 kPa	461 ± 12
567.81 K, 7000 kPa	495.4 ± 13
567.91 K, 3010 kPa	418.8 ± 12
567.95 K, 10010 kPa	543.8 ± 12
577.4 K, 3010 kPa	389.4 ± 11
577.79 K, 5000 kPa	432.1 ± 12
577.89 K, 7000 kPa	469.8 ± 13
578.16 K, 10000 kPa	522.9 ± 13
587.88 K, 3000 kPa	361.9 ± 11
588.02 K, 5010 kPa	411.1 ± 12
588.47 K, 7010 kPa	450.4 ± 13
597.58 K, 3000 kPa	331.4 ± 10
598.07 K, 7000 kPa	426.9 ± 12
598.29 K, 5010 kPa	384.1 ± 12
608.09 K, 7010 kPa	400.7 ± 12
608.23 K, 5000 kPa	353.7 ± 11
608.38 K, 3000 kPa	294.3 ± 9.5
